This is an account of results in patent US20250388584A1, “TPK AGONIST AND METHOD FOR TREATING NEURODEGENERATIVE DISEASES USING SAME” (SHANGHAI RAISING PHARMACEUTICAL CO., LTD., priority 2022, published 2025).

Structures can show the parent of a compound that is named as a salt. Where two headings read alike, the source gives them in different places.

Usually Emax stands for the maximal effect, on the per cent scale that the assay sets. A word on the EC50: it is the concentration that produces a half-maximal response.

The assay concerns the target TPK enzyme (Homo sapiens (Human), UniProt Q9H3S4). As to the kind of experiment: TPK enzyme activity test. In kind it is biochemical. Particulars: for Emax: calculated with the effect of DMSO on TPK enzyme activity as 100%; for EC50: promoting effect on TPK enzyme activity.

Chain of TPK enzyme (Q9H3S4 whole entry): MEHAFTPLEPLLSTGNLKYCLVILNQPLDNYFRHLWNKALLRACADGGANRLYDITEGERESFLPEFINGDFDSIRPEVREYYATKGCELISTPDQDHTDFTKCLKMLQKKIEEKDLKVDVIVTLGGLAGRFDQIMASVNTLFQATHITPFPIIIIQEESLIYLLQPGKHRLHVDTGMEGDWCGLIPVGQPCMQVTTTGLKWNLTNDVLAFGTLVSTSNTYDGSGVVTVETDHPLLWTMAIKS

The molecule `O=C(CCn1cnc2c([nH]c3ccc(C(F)(F)F)cc32)c1=O)N1CCN(Cc2cccc(C(F)(F)F)c2)CC1` [Compound 53, 3-(3-oxo-3-(4-(3-(trifluoromethyl)benzyl)piperazin-1-yl)propyl)-8-(trifluoromethyl)-3,5-dihydro-4H-pyrimido[5,4-b]indol-4-one] registered an EC50 of 1.58 µM. In addition, for the setting “read-out: Emax”, the Emax is 162%. The matching figures for `Cc1ccc2[nH]c3c(=O)n(CCC(=O)N4CCN(c5cccc(C)c5C)CC4)cnc3c2c1` [Compound 44]: 3.3 µM and 152%. `O=C(CCn1cnc2c([nH]c3ccc(C(F)(F)F)cc32)c1=O)NCc1cccc(C(F)(F)F)c1` [Compound 71, 3-(4-oxo-8-(trifluoromethyl)-4,5-dihydro-3H-pyrimido[5,4-b]indol-3-yl)-N-(3-(trifluoromethyl)benzyl)propanamide]: for the setting “read-out: Emax”, the maximum response (Emax) is 142%. Same read-out and setting: with `Cc1ccc2[nH]c3c(=O)n(CCC(=O)NCCCc4cccc(C(F)(F)F)c4)cnc3c2c1` [Compound 69, 3-(8-methyl-4-oxo-4,5-dihydro-3H-pyrimido[5,4-b]indol-3-yl)-N-(3-(3-(trifluoromethyl)phenyl)propyl)propanamide] the figure was 168%; with `Cc1ccc2[nH]c3c(=O)n(CCC(=O)N4CCN(c5cccc(C(N)=O)c5)CC4)cnc3c2c1` [Compound 28, 3-(4-(3-(8-methyl-4-oxo-4,5-dihydro-3H-pyrimido[5,4-b]indol-3-yl)propanoyl)piperazin-1-yl)benzamide], 124%. `O=C(CCn1cnc2c([nH]c3ccc(C(F)(F)F)cc32)c1=O)N1CCN(c2cccc(C(F)(F)F)c2)CC1` [Compound 6, 3-(3-oxo-3-(4-(3-(trifluoromethyl)phenyl)piperazin-1-yl)propyl)-8-(trifluoromethyl)-3,5-dihydro-4H-pyrimido[5,4-b]indol-4-one] showed an EC50 of 1.03 µM. Further, the maximal effect (Emax) (read-out: Emax) was 208%. In the case of `Cc1ccc2[nH]c3c(=O)n(CCCN4CCN(c5cccc(C(F)(F)F)c5)CC4)cnc3c2c1` [Compound 49, 8-methyl-3-(3-(4-(3-(trifluoromethyl)phenyl)piperazin-1-yl)propyl)-3,5-dihydro-4H-pyrimido[5,4-b]indol-4-one], the Emax (read-out: Emax) is 136%. `Cc1ccc2[nH]c3c(=O)n(CCC(=O)N4CCC(N(C)c5cccc(Cl)c5Cl)CC4)cnc3c2c1` [Compound 166, 3-(3-(4-((2,3-dichlorophenyl)(methyl)amino)piperidin-1-yl)-3-oxopropyl)-8-methyl-3,5-dihydro-4H-pyrimido[5,4-b]indol-4-one]: the midpoint of the response, the EC50, lay at 0.495 µM. Under “read-out: Emax”, the maximum response (Emax) was 119%. On to `Cc1ccc2[nH]c3c(=O)n(CCC(=O)NCCN(C)c4cccc(C(F)(F)F)c4)cnc3c2c1` [Compound 93, N-(2-(methyl(3-(trifluoromethyl)phenyl)amino)ethyl)-3-(8-methyl-4-oxo-4,5-dihydro-3H-pyrimido[5,4-b]indol-3-yl)propanamide], for which the Emax (read-out: Emax) is 192%. As for `Cc1ccc2[nH]c3c(=O)n(CCC(=O)NCCNc4ccc5ccccc5c4)cnc3c2c1` [Compound 132, 3-(8-methyl-4-oxo-4,5-dihydro-3H-pyrimido[5,4-b]indol-3-yl)-N-(2-(naphthalen-2-ylamino)ethyl)propanamide], where the note is “read-out: Emax”, the Emax is 163%. In the case of `Cc1ccc2c(c1)N1CCCC(C(=O)NCCCN3CCN(c4cccc(C(F)(F)F)c4)CC3)C1CO2` (stereo not shown) [Formate salt of 232, 2-methyl-N-(3-(4-(3-trifluoromethylphenyl)piperazin-1-yl)propyl)-6,6a,7,8,9,10-hexahydrobenzo[b]pyrido[1,2-d][1,4]oxazine-7-carboxamide Formate], the maximal effect (Emax) is 136% and the response was half-maximal at 1.81 µM (EC50). Take `O=C1CCCCN1CCCCCCN1c2ccccc2Sc2ccc(C(F)(F)F)cc21` [Compound 187, 1-(6-(2-(trifluoromethyl)-10H-phenothiazin-10-yl)hexyl)piperidin-2-one]: the EC50 was 1.13 µM. Besides, where the note is “read-out: Emax”, the maximal effect (Emax) is 191%. For `Cc1cccc(N2CCN(C(=O)CCn3cnc4c([nH]c5ccc(C)cc54)c3=O)CC2)c1` [Compound 38], the maximal response (Emax) (read-out: Emax) is 145%. Consider `Cc1ccc2oc3c(=O)n(CCC(=O)N4CCN(c5cccc(C(F)(F)F)c5)CC4)cnc3c2c1` [Compound 57, 8-methyl-3-(3-oxo-3-(4-(3-(trifluoromethyl)phenyl)piperazin-1-yl)propyl)benzofuro[3,2-d]pyrimidin-4(3H)-one], for which the concentration giving a half-maximal response (EC50) turned out to be 1.19 µM. For the same molecule, the maximal response (Emax) (read-out: Emax) is 159%. `O=C1CCc2ccc(OCCCCN3c4ccccc4Sc4ccc(C(F)(F)F)cc43)cc2N1` [Compound 205, 7-(4-(2-(trifluoromethyl)-10H-phenothiazin-10-yl)butoxy)-3,4-dihydroquinolin-2(1H)-one]: the maximal effect (Emax) is recorded as 137.51%.

On to `Cc1ccc2[nH]c3c(=O)n(CC(=O)NCCCN4CCN(Cc5ccccc5)CC4)ncc3c2c1` [Compound 55], for which the EC50 amounted to 10.6 µM. Moreover, the maximum response (Emax) (read-out: Emax) is 159%. For `Cc1ccc2c(c1)[nH]c1c(=O)n(CCC(=O)N3CCN(c4ccc(Cl)cc4Cl)CC3)cnc12` [Compound 3, 3-(3-(4-(2,4-dichlorophenyl)piperazin-1-yl)-3-oxopropyl)-7-methyl-3,5-dihydro-4H-pyrimido[5,4-b]indol-4-one], in that order: 1.78 µM and 136%. The matching figures for `Cc1ccc2[nH]c3c(=O)n(CCC(=O)N4CCN(c5cccc(C(F)(F)F)c5)CC4)ccc3c2c1` [Compound 59, 6-methyl-2-(3-oxo-3-(4-(3-(trifluoromethyl)phenyl)piperazin-1-yl)propyl)-2,9-dihydro-1H-pyrido[3,4-b]indol-1-one]: 1.38 µM and 190%.

As to `Cc1ccc2[nH]c3c(=O)n(CCC(=O)N4CCN(c5ccc(F)cc5)CC4)cnc3c2c1` [Compound 33], the Emax (read-out: Emax) was 123%.

`O=C(CCn1cnc2c([nH]c3ccc(F)cc32)c1=O)N1CCC(Cc2ccc(F)cc2)CC1` [Compound 154, 8-fluoro-3-(3-(4-(4-fluorobenzyl)piperidin-1-yl)-3-oxopropyl)-3,5-dihydro-4H-pyrimido[5,4-b]indol-4-one]: the EC50 was 2.6 µM. Where the note is “read-out: Emax”, the Emax is 144%. `Cc1cccc2[nH]c3c(=O)n(CCC(=O)NCc4cccc(C(F)(F)F)c4)cnc3c12` [Compound 77, 3-(9-methyl-4-oxo-4,5-dihydro-3H-pyrimido[5,4-b]indol-3-yl)-N-(3-(trifluoromethyl)benzyl)propanamide]: the maximum response (Emax) (read-out: Emax) was 122%.

Turning to `Cc1cccc2[nH]c3c(=O)n(CCC(=O)N4CCN(c5cccc(C(F)(F)F)c5)CC4)cnc3c12` [Compound 11, 9-methyl-3-(3-oxo-3-(4-(3-(trifluoromethyl)phenyl)piperazin-1-yl)propyl)-3,5-dihydro-4H-pyrimido[5,4-b]indol-4-one], the EC50 came to 1.07 µM. The Emax (read-out: Emax) is 180%. As for `Cc1ccc2c(c1)[nH]c1c(=O)n(CCC(=O)N3CCN(c4cccc(Cl)c4Cl)CC3)cnc12` [Compound 13, 3-(3-(4-(2,3-dichlorophenyl)piperazin-1-yl)-3-oxopropyl)-7-methyl-3,5-dihydro-4H-pyrimido[5,4-b]indol-4-one], the Emax (read-out: Emax) was 124%. `O=C(O)CCC(=O)OCCN1CCN(CCC(=O)N2c3ccccc3Sc3ccc(C(F)(F)F)cc32)CC1` [Compound 199] yielded an EC50 of 0.49 µM. Also, the Emax (read-out: Emax) is 204%.
